# According to US20250205158A1, “BIODEGRADABLE LIPIDS AND FORMULATIONS FOR DELIVERY OF MRNA” (Massachusetts Institute of Technology, priority 2023, published 2025):
# “And” between values parts separate entries of the source, which are not always exact repeats. Equal values may be shown once. Read-outs that look alike come from different tables or passages of the source.
# What was measured:
# [1] = LNP characterization (diameter, PDI, % EE); format: physicochemical; settings: LNP formulated with the named lipid; for EE %: Ribogreen assay; for Diameter (nm) / PDI: dynamic light scattering
# Method: Representative LNP Characterization Data. The diameter, polydispersity index (PDI), and % EE were characterized for various LNPs.
# LNP characterization. Concentration of mRNA was determined using a Quant-IT Ribogreen assay. LNPs were diluted in either native TE buffer (ThermoFisher) or denaturing TE buffer+0.5% Triton-X 100 (Millipore-Sigma) to measure the “free” and total mRNA, respectively. 100 μL of these unknowns were added to a black 96-well plate. Separately, standard curves ranging from 2 ng/μL-0 ng/μL were prepared in each of these buffers and 100 μL were added to the same 96-well plate. Finally, Quant-IT Ribogreen reagent (ThermoFisher) was diluted 1:200 in TE buffer and 100 μL of this solution was added to each of the wells. The well plate was then mixed at 400 rpm with a plate shaker for 5 mins. and the fluorescence was read with an excitation/emission of 485/535. LNPs were measured in triplicate and standards were measured in duplicate. RNA concentration in each of the unknown wells was calculated by fitting the standard curves with a linear trendline. Encapsulation efficiency (% EE) was calculated according to: […]
# Dynamic light scattering and zeta potential measurements were performed using a Malvern Zetasizer system. The reported diameter and PDI were obtained from the cumulants fit of the autocorrelation function. Zeta potential measurements were performed in 0.1×PBS, pH 7.4 and calculated using the Smoluchowski approximation.
# mice = settings: for protein expression relative to MD-1: in vitro and in vivo via intramuscular administration (FIGS. 6A-6B)
# Method: Evaluation of the LNPs via intramuscular injection. The in vivo potency of the ionizable lipids was screened through intramuscular injection of LNPs loaded with mRNA encoding firefly luciferase protein. These LNPs were formulated with a molar composition of (35:16:46.5:2.5) using one of the synthesized ionizable lipids, DOPE as a helper lipid, cholesterol, and DMPE-PEG respectively. mRNA-loaded LNPs were intramuscularly administered in mice at a dose of 1 μg, and expression of luciferase protein was monitored at 6 hours via IVIS bioluminescent imaging (FIG. 3). […] Without wishing to be bound by theory, increased levels of protein expression may enhance the response to vaccination.
# In Vitro and In Vivo Screening of AMG Lipid Library. Following synthesis, the mRNA delivery efficacy of the AMG lipids was evaluated through both in vitro and in vivo screens. To screen the first generation of AMG lipids (FIGS. 11B and 11C), firefly luciferase (FLuc) mRNA was encapsulated into LNPs using a previously reported formulation containing ionizable lipid, 1,2-dioleoyl-sn-glycero-3-phosphoethanolamine (DOPE), cholesterol, and 1,2-dimyristoyl-rac-glycero-3-methoxypolyethylene glycol-2000 (DMG-PEG).^19 C2C12 myoblast cells were treated with these LNPs and FLuc expression was evaluated at 24 hrs. (FIG. 16). […] Each of these batches was then injected IM into the quadriceps of mice, and expression was characterized via IVIS imaging (Screen 1, FIG. 11E).
# AMG lipids for enhanced mRNA delivery and improved tolerability. A rational design approach was used to further vary the ionizable lipid structure to enhance the mRNA delivery and immunogenicity. […] The lipid tail structure was varied to promote efficient LNP self-assembly while simultaneously promoting endosomal membrane disruption.^18 Monounsaturated (G41-G44) or fully saturated (GC12-GC18) lipid tails were developed. […] Without wishing to be bound by any particular theory, tail length may impact membrane fusion and endosomal escape.^10,11
# Next, the headgroup was further modified to further improve delivery. Headgroups play a multifunctional role including enhancing LNP-mRNA interactions, promoting membrane-LNP fusion and endosomal escape which all contribute to mRNA delivery.^23 A series of similar aza-crown ethers were used to further investigate structure-activity relationship and enhance mRNA delivery. These headgroups featured between three and eight nitrogens linked by varying length of methylene chains. Each of these headgroups were reacted with tail G41 to synthesize a next generation of AMG lipids, which were then formulated with FLuc mRNA and evaluated for mRNA delivery following IM administration in mice (FIG. 12B).
# [2] = Ethanol solubility of ionizable lipids; format: physicochemical
# Text: AMG lipids for enhanced mRNA delivery and improved tolerability.
# BALB/c mice = settings: spike mRNA LNPs on day 0 and day 21, serum day 35
# Method: Briefly, 6-8 week old BALB/c mice were vaccinated with 1 g of mRNA LNPs on day 0 and on day 21, and serum was collected on day 35 to characterize the antibody response to vaccination.
# Immunization studies. […] All LNPs were injected IM in the quadricep with an injection volume of 50 μL with the doses specified in the main text. All vaccination experiments followed a prime-boost dosing regimen with doses given on day 0 and day 21. On day 35, mice were sacrificed, and blood was collected via cardiac puncture and their spleens were collected for further characterization.
# Binding antibody ELISAs. […] Plates were coated overnight at 4° C. by adding 100 μL of a 1 μg/mL antigen solution in 100 mM carbonate buffer, pH 9.6 to each well. The coated plates were then washed with ELISA wash buffer (Biolegend) and blocked for 1 hr. at room temperature (RT) with 150 μL of 1% BSA in PBS. The plate was then washed again, and 100 μL of serially diluted serum samples were then added to the plate and incubated at RT for 1 hr. Next, the plate was washed and the secondary goat anti-mouse IgG, HRP antibody (ThermoFisher) was diluted 1:3,000. 100 μL of this solution added to each well an incubated at RT for 1 hr. After incubation, the plate was washed and 100 μL of TMB chromogen solution (ThermoFisher) was added to each well and incubated for 30 mins. Finally, the HRP reaction was stopped by the addition of 100 μL of 0.5 M H2SO4. The absorbance of each well was immediately read at 450 nm with 600 nm as a reference using an Infinite M200 Pro (Tecan) plate reader. The resultant data were then fit with a 4-PL sigmodal curve and the endpoint titers were taken as the point at which this curve crossed four times the absorbance of the blank wells.
# [3] = tissue not named
Compound,EE % [1],Diameter (nm) [1],PDI [1],protein expression relative to MD-1 (mice),further results
CCC/C=C\CCCCCCC(=O)OCC(O)CN1CCN(CC(O)COC(=O)CCCCCC/C=C\CCC)CCN(CC(O)COC(=O)CCCCCC/C=C\CCC)CCN(CC(O)COC(=O)CCCCCC/C=C\CCC)CCN(CC(O)COC(=O)CCCCCC/C=C\CCC)CCN(CC(O)COC(=O)CCCCCC/C=C\CCC)CC1 (centres unmarked) [AMG1549],56.9%,100.4 nm,0.234,superseded or matched MD-1,–
CCCCCCCCCCCCCCCCCC(=O)OCC(O)CN1CCCN(CC(O)COC(=O)CCCCCCCCCCCCCCCCC)CCN(CC(O)COC(=O)CCCCCCCCCCCCCCCCC)CCCN(CC(O)COC(=O)CCCCCCCCCCCCCCCCC)CC1 (mixture of isomers) [AMG10C18],–,–,–,–,ethanol solubility [2]: poor ethanol solubility
CCCCCC/C=C\CCCC(=O)OCC(O)CN1CCN(CC(O)COC(=O)CCC/C=C\CCCCCC)CCN(CC(O)COC(=O)CCC/C=C\CCCCCC)CCN(CC(O)COC(=O)CCC/C=C\CCCCCC)CCN(CC(O)COC(=O)CCC/C=C\CCCCCC)CCN(CC(O)COC(=O)CCC/C=C\CCCCCC)CCN(CC(O)COC(=O)CCC/C=C\CCCCCC)CC1 (centres unmarked) [AMG1741],82.99%,88 nm,0.156,–,antibody titers after vaccination (BALB/c mice): high levels of antibody titers
CC/C=C\C/C=C\CCCCC(=O)OCC(O)CN1CCN(CC(O)COC(=O)CCCC/C=C\C/C=C\CC)CCN(CC(O)COC(=O)CCCC/C=C\C/C=C\CC)CCN(CC(O)COC(=O)CCCC/C=C\C/C=C\CC)CCN(CC(O)COC(=O)CCCC/C=C\C/C=C\CC)CCN(CC(O)COC(=O)CCCC/C=C\C/C=C\CC)CC1 (centres unmarked) [AMG1555],88.37%,83 nm,0.077,superseded or matched MD-1,–
C/C=C\C/C=C\CCCCCC(=O)OCC(O)CN1CCN(CC(O)COC(=O)CCCCC/C=C\C/C=C\C)CCN(CC(O)COC(=O)CCCCC/C=C\C/C=C\C)CCN(CC(O)COC(=O)CCCCC/C=C\C/C=C\C)CCN(CC(O)COC(=O)CCCCC/C=C\C/C=C\C)CCN(CC(O)COC(=O)CCCCC/C=C\C/C=C\C)CC1 (centres unmarked) [AMG1556],85.76%,96 nm,0.121,superseded or matched MD-1,–
CCCCCC/C=C\CCCC(=O)OCC(O)CN1CCCN(CC(O)COC(=O)CCC/C=C\CCCCCC)CCN(CC(O)COC(=O)CCC/C=C\CCCCCC)CCCN(CC(O)COC(=O)CCC/C=C\CCCCCC)CC1 (centres unmarked) [AMG1041],–,81.79 nm,0.113,–,"[AMG1041] ng/g tissue ([3]; Time 0 hrs): 0 ng/g tissue; [AMG1041] ng/g tissue ([3]; Time 1 hrs): 32200 ng/g tissue and 24800 ng/g tissue and 28000 ng/g tissue; [AMG1041] ng/g tissue ([3]; Time 2 hrs): 14000 ng/g tissue and 23400 ng/g tissue and 20400 ng/g tissue; [AMG1041] ng/g tissue ([3]; Time 4 hrs): 17200 ng/g tissue and 12600 ng/g tissue and 9400 ng/g tissue; [AMG1041] ng/g tissue ([3]; Time 8 hrs): 4800 ng/g tissue and 8000 ng/g tissue; [AMG1041] ng/g tissue ([3]; Time 24 hrs): 600 ng/g tissue; antibody titers after vaccination (BALB/c mice): high levels of antibody titers; fold higher expression than AMG104 (mice; IM, tail derivatives, 5 μg, 24 hours): ~3 fold"
CCCCCCCCCCCCCCCC(=O)OCC(O)CN1CCCN(CC(O)COC(=O)CCCCCCCCCCCCCCC)CCN(CC(O)COC(=O)CCCCCCCCCCCCCCC)CCCN(CC(O)COC(=O)CCCCCCCCCCCCCCC)CC1 (mixture of isomers) [AMG10C16],–,–,–,–,ethanol solubility [2]: poor ethanol solubility
CCCCCC/C=C\CCCCOC(=O)CCN1CCN(CCC(=O)OCCCC/C=C\CCCCCC)CCN(CCC(=O)OCCCC/C=C\CCCCCC)CCN(CCC(=O)OCCCC/C=C\CCCCCC)CCN(CCC(=O)OCCCC/C=C\CCCCCC)CCN(CCC(=O)OCCCC/C=C\CCCCCC)CC1 [AMG1559],–,–,–,–,"fold drop in transfection versus AMG1541 (mice; IM, analogue without β-amino alcohol): 34 fold"
CC/C=C\CCCCCCCC(=O)OCC(O)CN1CCN(CC(O)COC(=O)CCCCCCC/C=C\CC)CCN(CC(O)COC(=O)CCCCCCC/C=C\CC)CCN(CC(O)COC(=O)CCCCCCC/C=C\CC)CCN(CC(O)COC(=O)CCCCCCC/C=C\CC)CCN(CC(O)COC(=O)CCCCCCC/C=C\CC)CC1 (centres unmarked) [AMG1550],78.09%,93 nm,0.119,superseded or matched MD-1,–
CCCC/C=C\C/C=C\CCC(=O)OCC(O)CN1CCN(CC(O)COC(=O)CC/C=C\C/C=C\CCCC)CCN(CC(O)COC(=O)CC/C=C\C/C=C\CCCC)CCN(CC(O)COC(=O)CC/C=C\C/C=C\CCCC)CCN(CC(O)COC(=O)CC/C=C\C/C=C\CCCC)CCN(CC(O)COC(=O)CC/C=C\C/C=C\CCCC)CC1 (centres unmarked) [AMG1553],89.0186%,94 nm,0.09,superseded or matched MD-1,–
CCCCCC/C=C\CCCCCCCC(=O)OCC(O)CN1CCCN(CC(O)COC(=O)CCCCCCC/C=C\CCCCCC)CCN(CC(O)COC(=O)CCCCCCC/C=C\CCCCCC)CCCN(CC(O)COC(=O)CCCCCCC/C=C\CCCCCC)CC1 (centres unmarked) [AMG1043],–,79.27 nm,0.169,–,–
CCCCC/C=C\CCCCC(=O)OCC(O)CN1CCN(CC(O)COC(=O)CCCC/C=C\CCCCC)CCN(CC(O)COC(=O)CCCC/C=C\CCCCC)CCN(CC(O)COC(=O)CCCC/C=C\CCCCC)CCN(CC(O)COC(=O)CCCC/C=C\CCCCC)CCN(CC(O)COC(=O)CCCC/C=C\CCCCC)CC1 (centres unmarked) [AMG1547],85.33%,100 nm,0.142,superseded or matched MD-1,–
CCCC/C=C\CCCCCC(=O)OCC(O)CN1CCN(CC(O)COC(=O)CCCCC/C=C\CCCC)CCN(CC(O)COC(=O)CCCCC/C=C\CCCC)CCN(CC(O)COC(=O)CCCCC/C=C\CCCC)CCN(CC(O)COC(=O)CCCCC/C=C\CCCC)CCN(CC(O)COC(=O)CCCCC/C=C\CCCC)CC1 (centres unmarked) [AMG1548],54.6%,104.7 nm,0.106,superseded or matched MD-1,–
C/C=C\CCCCCCCCC(=O)OCC(O)CN1CCN(CC(O)COC(=O)CCCCCCCC/C=C\C)CCN(CC(O)COC(=O)CCCCCCCC/C=C\C)CCN(CC(O)COC(=O)CCCCCCCC/C=C\C)CCN(CC(O)COC(=O)CCCCCCCC/C=C\C)CCN(CC(O)COC(=O)CCCCCCCC/C=C\C)CC1 (centres unmarked) [AMG1551],67.41%,77 nm,0.145,–,"in vivo mRNA delivery of alkene walking tail derivatives (mice; IM, 0.1 μg, 6 hours): loss in potency"
CCCCCCCCC=CCCCCCCCC(=O)OCC(O)CN1CCCN(CC(O)COC(=O)CCCCCCCC=CCCCCCCCC)CCN(CC(O)COC(=O)CCCCCCCC=CCCCCCCCC)CCCN(CC(O)COC(=O)CCCCCCCC=CCCCCCCCC)CC1 (mixture of isomers) [AMG104],–,–,–,–,"fold higher mRNA expression than the next best lipid AMG1010 (mice; Screen 3, IM, 1 μg, imaged 24 hours post injection): ~5 fold"
CCC/C=C\C/C=C\CCCC(=O)OCC(O)CN1CCN(CC(O)COC(=O)CCC/C=C\C/C=C\CCC)CCN(CC(O)COC(=O)CCC/C=C\C/C=C\CCC)CCN(CC(O)COC(=O)CCC/C=C\C/C=C\CCC)CCN(CC(O)COC(=O)CCC/C=C\C/C=C\CCC)CCN(CC(O)COC(=O)CCC/C=C\C/C=C\CCC)CC1 (centres unmarked) [AMG1554],91.711%,105 nm,0.1,superseded or matched MD-1,–
